# Reference: EP1985629A1, “Pro-apoptotic molecules and therapeutic uses thereof” (UNIVERSITA DEGLI STUDI DI GENOVA, priority 2007, dated 2008)
# Where a SMILES comes first, the peptide text is derived from it. [ ]: non-standard residue; d: D form. Aib = CC(C)(N)C(=O)O
# How the values were obtained:
# Assay type in all cases: cell-based, human
# tumour cell lines [1] = test: DNA flow cytometry (PI/SSC) for apoptosis in tumour cell lines; conditions: 4 days
# Protocol: • Figure 1 Fluorescence Anisotropy Assay. Average anisotropy values: (open square) binding assay for increasing concentrations of Bcl-XL at a fixed concentration of fluorescent Bak-BH3 peptide. […] The error bars represent standard deviations observed from triplicate experiments. • Figure 2 072RB: cell growth effects. Panel A: Cell growth of U937 cell line treated for four days every 24 h at a 1 µM 072RB concentration and every 48 h at 3, 5, 10 and 30 µM 072RB concentrations. U937 controls at day 4, cell number: 350,000 ±50,000. Number of cells seeded at day 0: 20,000. Arrows indicate treatment time. […] All cells were counted in a Burker chamber and values are expressed as percentage of the untreated control cell number. Only living cells identified by trypan blue exclusion staining were counted. […] Flow cytometry measurements of DNA content (evaluated by propidium iodide (PI) fluorescence intensity) and physical cell side-scattering (evaluated by SSC) in U937 cells treated with Int and 072RB at 10 µM, twice each 48h. […] Three main cell populations can be observed in the bivariate PI/SSC plots, one with low SSC and normal DNA content (that accounts for "live" cells in culture), another with high SSC and normal DNA content (cells undergoing "early stage of apoptosis") and another one with lower PI fluorescence (cells at "late stage of apoptosis" and debris). […]
# caspase 3 = test: Caspase 3 activation (FITC-DEVD-FMK, FACS analysis); conditions: for cells positive for activated caspase 3: 24 h; for cells with activated caspase 3: 72 h
# Protocol: The activation of caspase-9 (mitochondrial apoptosis) and caspase-3 (activated downstream of caspase-9), was evaluated in cell lines (10^6 cells/well in a 24 wells plate) incubated with different concentrations of 072RB (1, 10 µM for 24h, 48h and 72h, in complete RPMI medium + 10% FCS at 37°C, using the caspase-9 and caspase-3 Detection Kit (Calbiochem, Darmstadt, Germany). The assay utilizes LEHD-FMK or DEVD-FMK conjugated to fluorescein-isothiocyanate (FITC) as caspase-9 or caspase-3 in situ marker. FITC-LEHD-FMK and FITC-DEVD-FMK are cell permeable, non toxic, and irreversibly bind only to activated caspase-9 or -3 in apoptotic cells. Samples were run on a flow cytometer (FACSort, Becton Dickinson) equipped with an argon ion laser exiting FITC at 488nm, At least 10^5 events were analysed for each sample using the CellQuest computer program. Data are expressed as Log green fluorescence intensity (a.u.) vs cell number. Calibration was assessed with CALIBRITE particles (Becton Dickinson) using the AutoCOMP computer program.
# Cells were incubated for 24, 48 and 72 h with 072RB (10 µM) or Int (10 µM), together with FITC-LEDH-FMK or FITC-DEVD-FMK, to detect caspase 9 and caspase 3 activation, respectively (FACS analysis). […] Furthermore, caspase 3, a downstream substrate of caspase 9, was progressively activated at increasing incubation times with 072RB. After 24 h of incubation 30% of U937, 35% of Namalwa, 22% of Jurkat cells, respectively, were positive for activated caspase 3; after 72 h of incubation 70% of U937, 60% of Namalwa, and 35% of Jurkat cells, respectively, had activated caspase 3. On the contrary, a negligible fraction of cells incubated with the Int peptide (1-3%), a % similar to that observed in untreated cells, expressed activated caspase 3.
# tumour cell lines [2] = test: Propidium iodide (PI) uptake test, cell viability; conditions: treated for 4 days; data not shown
# Protocol: PI uptake tests were performed to assess cell viability. Cells suspended in culture medium were incubated for 5 min with 3 µg/ml PI and analysed by flow cytometry. […] At least 10,000 events were acquired on a logarithmic scale from each sample.
# Based on the results reported above we selected treatment concentrations of 5 µM and 10 µM for subsequent experiments. […] To evaluate whether the decreased cell growth was due to cell cycle arrest, cell death, or both, flow cytometry assays to assess cell viability and cell cycle behavior were performed. […] Flow cytometry measurements of DNA content and side scatter confirmed that the main cause of cell growth inhibition after 2 or 4 days of 072RB treatment at 5, 10 or 30 µM respectively, was cell death rather than cell cycle perturbation, as shown in Figure 3A for U937 cells. Three main cell populations can be observed in bivariate plots of side scatter (SSC) vs. DNA content (PI fluorescence), one with low SSC and normal DNA content (that accounts for cells "alive" in culture), another with high SSC and normal DNA content (cells undergoing "an early stage of apoptosis ") and another one with lower PI fluorescence (cells at "a late stage of apoptosis" and debris). The respective DNA histograms (projection of the dot plots on the x-axis) are reported for each plot. […]
Compound,"cell death (alive, early- and late-apoptotic fractions) (tumour cell lines [1]; three cancer lines, 10 µM)","fraction of cells expressing activated caspase 3 (caspase 3; 10 µM, cell line and time not specified, similar to untreated cells)",cell death (PI uptake test) (tumour cell lines [2]),"cell death (alive, early- and late-apoptotic fractions) (tumour cell lines [1]; three tumour cell lines, 5 to 10 µM)","cells positive for activated caspase 3 (caspase 3; Jurkat, 10 µM) [%]","cells with activated caspase 3 (caspase 3; Jurkat, 10 µM) [%]","cells positive for activated caspase 3 (caspase 3; Namalwa, 10 µM) [%]","cells with activated caspase 3 (caspase 3; Namalwa, 10 µM) [%]","cells positive for activated caspase 3 (caspase 3; U937, 10 µM) [%]","cells with activated caspase 3 (caspase 3; U937, 10 µM) [%]"
"KKWKMRRNPFWIKIQR [Int, internalisation tag, a modified Q50P 16 aa Antennapedia IIIrd α-helix, reference compound]",substantially inactive,1-3%,–,–,–,–,–,–,–,–
CC[C@H](C)[C@H](NC(=O)[C@H](CCCNC(=N)N)NC(=O)[C@H](CCCNC(=N)N)NC(=O)[C@H](CC(C)C)NC(=O)[C@H](CCC(=O)O)NC(=O)[C@H](CCC(N)=O)NC(=O)C(C)(C)NC(=O)[C@@H](NC(=O)[C@H](Cc1ccc(O)cc1)NC(=O)[C@@H](NC(=O)[C@H](CCC(=O)O)NC(=O)[C@@H]1CCCN1C(=O)[C@H](CCCNC(=N)N)NC(=O)[C@H](CCSC)NC(=O)[C@@H](N)CC(=O)O)[C@@H](C)CC)[C@@H](C)CC)C(=O)NCC(=O)N[C@@H](CC(=O)O)C(=O)N[C@@H](C)C(=O)N[C@@H](Cc1ccccc1)C(=O)N[C@@H](CC(N)=O)C(=O)NC(C)(C)C(=O)N[C@@H](Cc1ccc(O)cc1)C(=O)N[C@@H](CCCCN)C(=O)N[C@@H](CCCCN)C(=O)N[C@@H](Cc1c[nH]c2ccccc12)C(=O)N[C@@H](CCCCN)C(=O)N[C@@H](CCSC)C(=O)N[C@@H](CCCNC(=N)N)C(=O)N[C@@H](CCCNC(=N)N)C(=O)N[C@@H](CC(N)=O)C(=O)N1CCC[C@H]1C(=O)N[C@@H](Cc1ccccc1)C(=O)N[C@@H](Cc1c[nH]c2ccccc12)C(=O)N[C@H](C(=O)N[C@@H](CCCCN)C(=O)N[C@H](C(=O)N[C@@H](CCC(N)=O)C(=O)N[C@@H](CCCNC(=N)N)C(N)=O)[C@@H](C)CC)[C@@H](C)CC [Peptide 072RB] (H-DMRPEIYI[Aib]QELRRIGDAFN[Aib]YKKWKMRRNPFWIKIQR-NH2; N-terminus and C-terminus assumed),–,–,dose-dependent cell death,Significant cell death,22,35,35,60,30,70
